{"source": "patent US6890889B1", "about": "“Mesotrione formulations” (priority 2000, dated 2005)", "tested_on": "weed", "experiment": "Experiments varying water quality and application volumes", "assay_type": "in vivo", "details": "applied at recommended rates with these adjuvant systems", "excerpt": "Mesotrione, (2-[4-methylsulfonyl-2-nitrobenzoyl]-1,3-cyclohexane dione), is a new broadleaf weed herbicide being developed for post emergence and preemergence use in corn. Adjuvants are highly preferred in order to optimise its post emergence activity. Glasshouse and field experiments have been conducted to evaluate weed and crop response to mesotrione applied post emergence with several adjuvant systems. Rates of mesotrione ranged from 50 to 140 g active ingredient (ai) per […]. Adjuvant systems tested include; • (i) no adjuvant (control), • (ii) crop oil concentrate (COC), • (iii) non-ionic surfactant (NIS), and • (iv) methylated seed oil (MSO), each with and without urea ammonium nitrate (UAN and ammonium sulphate (AMS) fertilizers.\nThe use of methylated seed oil with mesotrione increases the potential for crop injury.", "data": [{"smiles": "CS(=O)(=O)c1ccc(C(=O)C2C(=O)CCCC2=O)c([N+](=O)[O-])c1", "note": "[mesotrione, 2-[4-methylsulfonyl-2-nitrobenzoyl]-1,3-cyclohexane dione]", "values": [{"measurement": "impact of varying water quality and application volumes on activity", "value": "little or no impact"}]}]}
